Earlier results, collected in publication PMC6359455, “Partial Solvation Parameters of Drugs as a New Thermodynamic Tool for Pharmaceutics” (Pharmaceutics, 2019).

Design: method as in doi:10.1021/acs.iecr.7b02286; Vx (McGowan volume LSER descriptor): unit not given here
Settings: common solvents; cited from earlier work

Compound | B (basicity LSER descriptor) | E (excess refractivity LSER descriptor) | S (polarity LSER descriptor) | Vx (McGowan volume LSER descriptor) | A (acidity LSER descriptor)
C1COCCO1 [1,4-Dioxane] | 0.635 | 0.330 | 0.744 | 0.681 | 
CCCCO [1-Butanol] |  | 0.220 | 0.420 | 0.731 | 
CCCCCCCCO [1-Octanol] | 0.480 | 0.200 | 0.421 | 1.295 | 0.370
CCCO [1-Propanol] |  | 0.240 | 0.420 | 0.590 | 
CCC(C)O (stereo not shown) [2-Butanol] | 0.560 | 0.220 | 0.360 | 0.731 | 0.330
CC(C)=O [Acetone] | 0.493 | 0.180 | 0.703 | 0.547 | 
CC#N [Acetonitrile] | 0.330 | 0.241 | 0.900 | 0.404 | 0.040
c1ccccc1 [Benzene] |  | 0.610 | 0.520 | 0.716 | 
ClC(Cl)(Cl)Cl [Carbon tetrachloride] |  | 0.460 | 0.380 | 0.739 | 
ClC(Cl)Cl [Chloroform] |  | 0.430 | 0.490 | 0.617 | 0.150
C1CCCCC1 [Cyclohexane] |  | 0.310 | 0.010 | 0.845 | 
OC1CCCCC1 [Cyclohexanol] | 0.570 | 0.461 | 0.557 | 0.904 | 0.320
ClCCl [Dichloromethane] |  | 0.390 | 0.574 | 0.494 | 0.100
CCO [Ethanol] | 0.480 | 0.250 | 0.419 | 0.449 | 0.370
CCOC(C)=O [Ethyl acetate] | 0.450 | 0.110 | 0.618 | 0.747 | 
CCc1ccccc1 [Ethylbenzene] |  |  | 0.510 |  | 
OCCO [Ethylene glycol] | 0.780 | 0.400 | 0.900 | 0.508 | 0.580
CC(C)O [Isopropanol] | 0.560 | 0.210 | 0.366 | 0.590 | 0.330
CO [Methanol] | 0.470 | 0.280 | 0.439 | 0.308 | 0.430
CCC(C)=O [Methyl ethyl ketone] | 0.510 | 0.170 | 0.697 | 0.688 | 
Oc1ccccc1 [Phenol] | 0.300 | 0.808 | 0.890 | 0.775 | 0.600
